“Also recorded” adds a separate entry of the source. Where two headings read alike, the source gives them in different places.
Key:
[1] = target: T1, gastric histamine H2 receptors (Rattus norvegicus, UniProt P25102); assay: antisecretory activity: antagonism of histamine-induced gastric acid hypersecretion in rat (Ghosh and Schild); type: in vivo; settings: for Relative potency (cimetidine = 1): gastric H2, from ID50, rat i.v.; for ED50: rat, read-out: ID50 (dose which inhibits by 50% the gastric hypersecretion induced by histamine); for antisecretory (gastric H2 blocking) activity in words: comparison from Table I
T1 construct: the gastric secretion is measured by perfusion of a physiological solution at a constant speed in the stomach of the animal; from tissue; host or cells: stomach of the living rat (in vivo, intravenous histamine infusion)
T1 sequence (P25102 whole entry, the tested form may be a part): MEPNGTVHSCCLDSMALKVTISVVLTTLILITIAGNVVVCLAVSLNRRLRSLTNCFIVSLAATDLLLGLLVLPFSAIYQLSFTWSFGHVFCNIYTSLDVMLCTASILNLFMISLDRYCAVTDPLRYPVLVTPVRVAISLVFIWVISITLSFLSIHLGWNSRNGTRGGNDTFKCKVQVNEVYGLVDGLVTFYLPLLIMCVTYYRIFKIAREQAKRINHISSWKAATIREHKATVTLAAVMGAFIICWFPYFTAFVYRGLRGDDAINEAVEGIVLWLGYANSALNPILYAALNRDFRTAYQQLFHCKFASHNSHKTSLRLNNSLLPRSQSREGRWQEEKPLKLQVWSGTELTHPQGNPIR
Description: According to this test, a gastric acid hypersecretion is induced by intravenous infusion of a sub-maximal dose of histamine equivalent to 15 mcmol/kg/hour and the gastric secretion is measured by perfusion of a physiological solution at a constant speed in the stomach of the animal.
Such a ID50 represents the index of the gastric H2 blocking action.

[2] = target: T2, cardiac histamine H2 receptors (Cavia porcellus, UniProt P47747); assay: inhibition of the increase in frequency induced by histamine on the isolated right atrium of the guinea pig; type: cell-based; settings: for Relative potency (cimetidine = 1): cardiac H2, from IC50, guinea pig right atrium
T2 construct: induced by histamine on the isolated right atrium of the guinea pig; from tissue; host or cells: isolated right atrium of the guinea pig
T2 sequence (P47747 whole entry): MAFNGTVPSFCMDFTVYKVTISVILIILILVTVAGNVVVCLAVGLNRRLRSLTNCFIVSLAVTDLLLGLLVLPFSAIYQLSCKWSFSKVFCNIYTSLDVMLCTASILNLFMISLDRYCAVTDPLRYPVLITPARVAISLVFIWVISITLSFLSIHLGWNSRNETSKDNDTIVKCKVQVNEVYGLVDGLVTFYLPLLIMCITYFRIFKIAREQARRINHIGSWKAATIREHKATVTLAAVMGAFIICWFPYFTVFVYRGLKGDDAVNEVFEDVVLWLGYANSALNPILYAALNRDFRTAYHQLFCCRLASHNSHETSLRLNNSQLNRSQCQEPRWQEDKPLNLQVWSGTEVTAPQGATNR
From the text: Such an IC50 represents the index of cardiac H2 blocking action.

[3] = tested on: immature Sprague Dawley rats, castrated, testosterone-stimulated genitals and levator ani muscle; settings: rat, in vivo, ip, 200 mg/kg/day
Description: Testosterone was administered by sub-cutaneous route, suspended in a vehicle for steroids, both at the dose of 0.2 mg/animal/day, and 0.4 mg/animal/day. […] As a control it was used a lot of animals treated with the vehicles only. The treatment lasted 8 days. The animals were killed 24 hours after the last injection, the ventral prostrate, the seminal vescicles and the levator ani were immediately drawn and weighed.

cardiac H2 receptors = settings: Clinica Terapeutica, 1981, 96, 81-91; cited from earlier work
gastric acid secretion = settings: rat; as oxalate; cited from earlier work
[4] = intravenous route, single administration, histamine infusion 15 mcmol/kg/hour

Relative potency (cimetidine = 1) [1] | ED50 [1, 4] [µmol/kg] | Relative potency (cimetidine = 1) [2] | SMILES | further results
0.97 | 0.98 | 0.2 | CN(C)Cc1ccc(CSCCNC(=O)c2cccc(NS(C)(=O)=O)c2)o1 [CM 57822, 3-methanesulfonamido-N-[2-(5-dimethylaminomethylfuran-2-ylmethylthio)ethyl]benzamide] | 
0.42 | 2.26 | 1.3 | CN(C)Cc1ccc(CSCCNC(=O)c2ccc(S(N)(=O)=O)cc2)o1 [Compound A, N-[2-(5-dimethylaminomethylfuran-2-ylmethylthio)ethyl]-4-sulfamoyl benzamide, reference compound] | cardiac H2 blocking activity in words (compared with cimetidine) ([2]; comparison from Table II): more active
0.82 | 1.15 | 0.06 | CN(C)Cc1ccc(CSCCNC(=O)c2cccc(NC(=O)c3cccs3)c2)o1 [SR 57922, 3-(2-thienylcarboxamido)-N-[2-(5-dimethylaminomethylfuran-2-ylmethylthio)ethyl]benzamide] | 
0.52 | 1.82 |  | CN(C)Cc1ccc(CSCCNC(=O)c2cccc(NS(=O)(=O)c3cccnc3)c2)o1 [SR 57933, 3-(3-pyridinesulfonamido)-N-[2-(5-dimethylaminomethylfuran-2-ylmethylthio)ethyl]benzamide] | 
1.02 | 0.93 |  | CN(C)Cc1ccc(CSCCNC(=O)c2cccc(NS(=O)(=O)c3cccs3)c2)o1 [SR 57975, 3-(2-thiophenesulfonamido)-N-[2-(5-dimethylaminomethylfuran-2-ylmethylthio)ethyl]benzamide] | 

Further lines, the molecule ahead of its results:

SMILES | Relative potency (cimetidine = 1) [1] | ED50 [1, 4] [µmol/kg] | Relative potency (cimetidine = 1) [2] | further results
CN(C)Cc1ccc(CSCCNC(=O)c2cccc(NS(=O)(=O)c3ccccc3)c2)o1 [CM 57888, 3-benzenesulfonamido-N-[2-(5-dimethylaminomethylfuran-2-ylmethylthio)ethyl]benzamide] |  |  |  | effect when testosterone was administered at the dose of 0.4 mg/animal/day [3]: did not exhibit any effect
CN/C(=N/CCSCc1nc[nH]c1C)NC#N [Cimetidine, 2-cyano-1-methyl-3-[2[(5-methylimidazol-4-yl)methylthio]ethyl]guanidine, reference compound] |  |  |  | ED50 ([1]; iv): 0.95 µmol/kg; side effects in the treatment of the ulcerous disease (cardiac H2 receptors): bradycardia and of the asystolia observed as side effects
CN(C)Cc1ccc(CSCCNC(=O)c2ccc(S(N)(=O)=O)cc2)o1 [N-[2-(5-dimethylaminomethylfuran-2-ylmethylthio)ethyl]-4-sulfamoylbenzamide] |  |  |  | ED50 in the gastric acid secretion inhibiting activity (gastric acid secretion): 2.54 mg/kg
CNC(=C[N+](=O)[O-])NCCSCc1ccc(CN(C)C)o1 [Ranitidine, N-[2[[5-[(dimethylamino)methyl]furfuryl]thio]ethyl]-N'-methyl-2-nitro-1,1-ethenediamine, reference compound] | 3.80 |  | 5 | ED50 ([1]; iv): 0.25 µmol/kg
CN(C)Cc1ccc(CSCCNC(=O)c2cccc(NC(=O)c3ccc[n+]([O-])c3)c2)o1 [SR 57912, 3-[(3-pyridine 1-oxyde)carboxamido]-N-[2-(5-dimethylaminomethylfuran-2-ylmethylthio)ethyl]benzamide] | 2.88 | 0.33 | 0.08 | antisecretory (gastric H2 blocking) activity in words [1]: very powerful; also recorded: very close to that of ranitidine
CN(C)Cc1ccc(CSCCNC(=O)c2cccc(NC(=O)c3cccnc3)c2)o1.O=C(O)C(=O)O.O=C(O)C(=O)O [SR 57927 A, 3-(3-pyridinecarboxamido)-N-[2-(5-dimethylaminomethylfuran-2-ylmethylthio)ethyl]benzamide dioxalate] | 0.82 |  |  | ED50 ([1]; iv): 1.15 µmol/kg
CCCCS(=O)(=O)Nc1cccc(C(=O)NCCSCc2ccc(CN(C)C)o2)c1 [SR 57981 A, 3-butanesulfonamido-N-[2-(5-dimethylaminomethylfuran-2-ylmethylthio)ethyl]benzamide] | 1.94 | 0.49 |  | antisecretory (gastric H2 blocking) activity in words [1]: very powerful

Source: patent publication US4439444A, “Amidobenzamides, their salts and pharmaceutical compositions containing them” (Sanofi, priority 1981, dated 1984)
